Test results from patent publication US8927580B2, “Thiosemicarbazone compounds and use in the treatment of cancer” (Oncochel Therapeutics LLC, priority 2010, dated 2015).

Legend:
[1] = system: DMS-53 human lung carcinoma; test: DMS-53 xenograft in nude mice, i.v. administration: tumour growth; assay type: in vivo, nude mice (BALBc nu/nu); conditions: 0.75 mg/kg
[2] = DMS-53 xenograft i.v. study: body and organ weights, haematology, histology; assay type: in vivo, nude mice (BALBc nu/nu)
[3] = system: DMS-53 human lung carcinoma; test: DMS-53 xenograft in nude mice, oral gavage: tumour growth; assay type: in vivo, nude mice (BALBc nu/nu); conditions: 10 mg/kg, 21 days
[4] = DMS-53 xenograft oral study: body and organ weights, haematology, biochemistry, histology; assay type: in vivo, nude mice (BALBc nu/nu)
[5] = system: PANC 1 human pancreatic carcinoma; test: PANC 1 xenograft in nude mice: tumour growth; assay type: in vivo, nude mice (BALBc nu/nu); conditions: for average tumour size (% of the original tumour size): after 6 weeks; for final tumour weight: after 43 days
Method: FIG. 5). […] (5 mg/kg) or vehicle control.

NDRG1 = test: Western blot analysis, NDRG1 expression; assay type: cell-based; conditions: MIAPaCa-2 cells
Method: (§1) Western analysis was performed via established protocols (Gao, J. and D. R. Richardson (2001). Blood 98: 842-50). The primary antibodies used were against NDRG1 (Abcam; UK), p21, cyclin D1, transferrin receptor 1 (TfR1; Santa Cruz, CA, USA) and β-actin (Sigma-Aldrich), with secondary HRP-conjugated goat and mouse antibodies (Sigma-Aldrich).
(§2) Dp4cycH4mT was examined to determine whether it could up-regulate NDRG-1 expression. To further evaluate the effect of the chelator Dp4cycH4mT on other key molecules involved in cell cycle progression, the expression of the cyclin-dependent kinase inhibitor, p21, as well as cyclin D1 in MIAPaCa-2 cells was also examined.

cyclin D1 = test: Western blot analysis, cyclin D1 levels; assay type: cell-based; conditions: MIAPaCa-2 cells
Method: as §1, §2

p21 = test: Western blot analysis, p21 expression; assay type: cell-based; conditions: MIAPaCa-2 cells
Method: as §1, §2

methemoglobin (metHb) = test: metHb formation in vivo; design: species or system C57BL6 mice; conditions: 6 mg/kg intravenously, blood taken after 30 min
Method: FIG. 13. Effect of thiosemicarbazone chelators on metHb-formation in vivo. MetHb after Dp44mT, Triapine® or Dp4cycH4mT treatment in vivo at a dose of 6 mg/kg administered intravenously via the tail vein. Mice in the control group were treated with vehicle alone. At 30 minutes post-administration, whole blood was collected for determination of metHb levels.
(§3) The levels of metHb and metMb in RBC lysates were determined using a Shimadzu UV-Vis spectrophotometer (UV-1800; Shimadzu Corporation, Kyoto, Japan) at 577 nm and 630 nm for metHb and metMb in accordance with published methods (Winterbourn CC and Carrell R W (1977). Biochem J 165: 141-148).
(§4) C57BL6 mice (7-8 weeks-old) were used under a protocol approved by the university of Sydney Animal Ethics Committee. Dp44mT, Triapine® or Dp4cycH4mT (all at 6 mg/kg) were dissolved in 30% propylene glycol/saline and administered iv via the tail vein. Subsequently, 30 min after administration, mice were anesthetized with isoflurane and blood samples obtained by cardiac puncture. Blood samples were lysed with 2.5 volumes of ultrapure water for metHb estimation. Mice were sacrificed with isoflurane, the heart exhaustively perfused with HBSS and Mb isolated.

metmyoglobin (metMb) = test: metMb formation in vivo; design: species or system C57BL6 mice; conditions: 6 mg/kg intravenously, 30 min post-administration, heart
Method: FIG. 14. Effect of thiosemicarbazone chelators on metMb-formation in vivo. MetMb levels after Dp44mT Triapine® or Dp4cycH4mT treatment in vivo at a dose of 6 mg/kg administered intravenously via the tail vein. Mice in the control group were treated with vehicle alone. At 30 min post-administration, whole hearts were collected for determination of metMb levels.
Mouse heart tissue was exhaustively perfused with ice-cold HBSS to remove blood and homogenized in ice-cold HBSS containing protease inhibitor cocktail (Roche, Basel, Switzerland). Heart homogenates were centrifuged (16,000×xg/45 min/4° C.) and the supernatant ([oxyMb]=50 μM) used immediately.
as §3, §4

[6] = mouse, in vivo
[7] = system: MIAPaCa-2 pancreatic cancer cells; test: MTT proliferation assay, MIAPaCa-2; assay type: cell-based; conditions: Homo sapiens, MIA PaCa-2; MIAPaCa-2, MTT, 72 h
Method: (§5) The pancreatic cancer cell lines, including MIAPaCa-2, PANC 1, CAPAN-2 and CFPAC-1 were a generous gift from Prof. Andrew Biankin (Garvan Institute, NSW, Australia). The MIAPaCa-2, PANC 1 and CFPAC-1 cell lines were grown in DMEM medium (Invitrogen) and CAPAN-2 cells were grown in McCoy's medium (Invitrogen). All media was supplemented with 10% (v/v) fetal calf serum (Invitrogen), 1% (v/v) non-essential amino acids (Invitrogen), 1% (v/v) sodium pyruvate (Invitrogen), 2 mM L-glutamine (Invitrogen), 100 μg/mL of streptomycin (Invitrogen), 100 U/ml penicillin (Invitrogen), and 0.28 μg/mL of fungizone.
(§6) To further examine the spectrum of anti-proliferative activity, Dp4cycH4mT was tested against pancreatic cancer in vitro, performing MTT proliferation assays with PANC 1, MIAPaCa-2, CFPAC-1 and CAPAN-2 pancreatic cancer cells. As a comparison, currently used treatments for pancreatic cancer including gemcitabine and 5-fluorouracil were also tested. The iron chelator, DFO, was included as a positive control.
(§7) Table 2A. Anti-proliferative activity of Dp4cycH4mT against pancreatic cancer cell lines. Growth and antiproliferative activity IC50 (μM) values of Dp4cycH4mT in a variety of pancreatic cell lines and in comparison to DFO and the clinically used drugs gemcitabine and 5-fluorouracil as determined by the MTT assay. Cells were seeded and allowed to attach to wells for 24 h and then incubated for 72 h at 37° C. with control medium or the chelators. Results are mean±SD (3 experiments).
as §7, with “2B.” for “2A.”, “IC90” for “Growth and antiproliferative activity IC50”

[8] = system: PANC 1 pancreatic cancer cells; test: MTT proliferation assay, PANC 1; assay type: cell-based; conditions: Homo sapiens; PANC 1, MTT, 72 h
Method: as §5, §6, §7
as §7, with “2B.” for “2A.”, “IC90” for “Growth and antiproliferative activity IC50”

[9] = system: CAPAN-2 pancreatic cancer cells; test: MTT proliferation assay, CAPAN-2; assay type: cell-based; conditions: Homo sapiens; CAPAN-2, MTT, 72 h
Method: as §5, §6, §7
as §7, with “2B.” for “2A.”, “IC90” for “Growth and antiproliferative activity IC50”

[10] = system: CFPAC-1 pancreatic cancer cells; test: MTT proliferation assay, CFPAC-1; assay type: cell-based; conditions: Homo sapiens; CFPAC-1, MTT, 72 h
Method: as §5, §6, §7
as §7, with “2B.” for “2A.”, “IC90” for “Growth and antiproliferative activity IC50”

[11] = system: transferrin receptor 1 (TfR1); test: Western blot analysis, transferrin receptor 1 levels; assay type: cell-based; conditions: MIAPaCa-2 cells
Method: as §1, §2

[12] = system: human RBCs (methemoglobin formation); assay type: cell-based; conditions: 3 h, 25 μM
Method: FIG. 12. Effect of DFO and thiosemicarbazone chelators on metHb-formation in vitro. Whole RBCs were incubated with 1-25 μM chelator at 37° C. for 3 h. Cells were lysed with ultra-pure H2O and metHb levels were measured spectrophotometrically. Results are the mean±SD from 3 experiments.
Whole blood samples were collected from healthy human donors or mice in suitable blood collection tubes containing EDTA and used immediately. Red blood cells (RBCs) were isolated by centrifugation (480 xg/5 min/4° C.) then washed in Hank's balanced salt solution (HBSS). RBCs were resuspended 1:1 in HBSS and whole RBC assays were carried out at 37° C.
as §3
The effect of chelator concentration (1-25 μM) on metHb-generation with intact RBCs was assessed (FIG. 12). […] At 25 μM, these chelators increased metHb formation to 19.95±1.0 and 19.9±3.0% of total Hb, respectively (FIG. 12). The negative control chelator Dp2mT, by design, features a methyl group that hinders complex formation. Accordingly, this chelator cannot participate in the redox-interaction with iron that gives rise to metHb formation (FIG. 12).

[13] = gemcitabine 5 mg/kg intra-peritoneally every 3rd day

For `CN(C)C(=S)NN=C(c1ccccn1)c1ccccn1` [Dp44mT, di-2-pyridylketone 4,4-dimethyl-3-thiosemicarbazone, reference compound], the Tumour weight [1] was 0.1 ± 0.02 g, the “net tumour size (% of the initial tumour volume)” value ([1]; after 25 days) was 122% and the “histology of the liver, spleen, kidney, brain or tumour (H & E) vs control” value ([2]; 2 weeks i.v., Dp44mT 0.75 mg/kg, Dp4e4mT.HCl 4 and 6 mg/kg) was “no significant differences”. For the same compound, the “myocardial lesions (Gomori-Trichrome stain)” value ([2]; 2 weeks i.v., Dp44mT 0.75 mg/kg, Dp4e4mT.HCl 4 or 6 mg/kg) was “myocardial lesions were observed”, the “change in red blood cell count, haemoglobin or white blood cell count” value ([2]; after 2 weeks, Dp44mT 0.75 mg/kg, Dp4e4mT.HCl 1.5, 4 or 6 mg/kg i.v.) was “no significant change” and the HCT ([2]; i.v., 0.75 mg, average) was 0.43. The HGB ([2]; i.v., 0.75 mg, average) was 135.50 g/L, the PLT ([2]; i.v., 0.75 mg, average) was 1274.50 10 × 9 cells/L and the RBC ([2]; i.v., 0.75 mg, average) was 9.87 10 × 12 cells/L. For the same compound, the WBC ([2]; i.v., 0.75 mg, average) was 5.38 10 × 9 cells/L, the “Body weight (% of initial weight)” value ([2]; i.v., 0.75 mg/kg) was 91.01 ± 5.3 % initial weight and the Brain weight ([2]; i.v., 0.75 mg/kg) was 0.32 ± 0.01 g. The Heart weight ([2]; i.v., 0.75 mg/kg) was 0.11 ± 0.01 g, the Kidney weight ([2]; i.v., 0.75 mg/kg) was 0.23 ± 0.01 g and the Liver weight ([2]; i.v., 0.75 mg/kg) was 1.04 ± 0.05 g. For the same compound, the Spleen weight ([2]; i.v., 0.75 mg/kg) was 0.13 ± 0.02 g, the “weight loss (% of initial weight)” value ([2]; i.v., 0.75 mg/kg) was 9% and the Tumour weight [3] was 0.46 ± 0.1 g. The “myocardial lesions (Gomori-Trichrome stain)” value ([4]; Dp44mT 0.75 mg/kg, Dp4e4mT.HCl 3 weeks at 2.5, 5, 7.5 and 10 mg/kg oral) was “myocardial lesions were observed”, the “histology of the liver, spleen, kidney, brain or tumour (H & E) vs control” value ([4]; Dp44mT 2 weeks at 0.75 mg/kg, Dp4e4mT.HCl 3 weeks at 2.5, 5, 7.5 and 10 mg/kg oral) was “no significant differences” and the “Body weight (% initial)” value ([4]; oral, 10 mg/kg) was 93.6 ± 1.8 % initial. The Brain weight ([4]; oral, 10 mg/kg) was 0.363 ± 0.008 g, the Heart weight ([4]; oral, 10 mg/kg) was 0.102 ± 0.005 g and the Kidney weight ([4]; oral, 10 mg/kg) was 0.208 ± 0.004 g. It also gave a Liver weight ([4]; oral, 10 mg/kg) of 0.88 ± 0.02 g, a Lung weight ([4]; oral, 10 mg/kg) of 0.133 ± 0.008 g and a Spleen weight ([4]; oral, 10 mg/kg) of 0.081 ± 0.005 g. The “average tumour size (% of the original tumour size)” value ([5]; 0.4 mg/kg i.v. 5 days/week) was 305%, the final tumour weight ([5]; 0.4 mg/kg i.v.) was 122 ± 33 mg and the NDRG1 expression (NDRG1) was “significantly (p<0.01) up-regulated”. The “cyclin D1 levels” value (cyclin D1) was “significantly (p<0.05) reduced”, the p21 expression (p21) was “markedly (p<0.05) increasing” and the “metHb (% of total Hb)” value (methemoglobin (metHb)) was 6.3±0.8 % of total Hb. The “levels of metMb” value (metmyoglobin (metMb)) was 82.3±2.6%, the “KIDNEY Fe (score for presence of iron stained by Perl's stain)” value [6] was “+/−” and the “SPLEEN HPC (score for the presence of haematopoietic cells in the splenic red pulp)” value [6] was “N”. For the same compound, the “iron deposits in the kidney” value [6] was “iron deposits were observed”.

With `Nc1ccn([C@@H]2O[C@H](CO)[C@@H](O)C2(F)F)c(=O)n1` [Gemcitabine, gemcitabine] the IC50 [7] was 0.02 ± 0.005 µM, the IC90 [7] was over 5 µM and the IC50 [8] was 11 ± 0.8 µM. For the same compound, the IC90 [8] was over 5 µM, the IC50 [9] was 40.8 ± 4.7 µM and the IC90 [9] was over 5 µM. It also gave an IC50 [10] of 0.02 ± 0.02 µM, an IC90 [10] of 30.4 ± 2.2 µM and a Tumour weight ([5]; Gemcitabine 5 mg/kg/day) of 0.07 ± 0.02 g. The “average tumour size (% of the original tumour size)” value [5, 13] was 319%, the final tumour weight [5, 13] was 67 ± 25 mg and the NDRG1 expression (NDRG1) was “no marked effect”. For the same compound, the “cyclin D1 levels” value (cyclin D1) was “did not modulate”, the p21 expression (p21) was “did not modulate” and the TfR1 levels [11] was “did not modulate”. For the same compound, the “KIDNEY Fe (score for presence of iron stained by Perl's stain)” value [6] was “−”, the “LIVER HP (histopathological changes)” value [6] was “N” and the “LUNG HP (histopathological changes)” value [6] was “N”. For the same compound, the “MYOCARDIUM Fibrosis” value [6] was “−”, the “MYOCARDIUM HP (histopathological changes)” value [6] was “N” and the “SPLEEN HPC (score for the presence of haematopoietic cells in the splenic red pulp)” value [6] was “N”. For the same compound, the “iron deposits in the kidney” value [6] was “no evidence of iron deposits”.

For `NC(=S)NN=Cc1ncccc1N` [Triapine®, 3-aminopyridine-2-carboxaldehyde thiosemicarbazone], the “metHb formation (% of total Hb)” value [12] was 19.95±1.0 % of total Hb and the “levels of metMb” value (metmyoglobin (metMb)) was 75.2±4.2%.
